How the values were obtained:
[1] = test system: dollar spot fungus (Agrostis stolonifera); assay: Turf plot trial at Clemson University (Example 85), area affected by dollar spot; format: in vivo; conditions: 50 grams active ingredient per 1000 square feet
Experimental: (§1) Plots of creeping bentgrass, cv. “Pennlinks,” were treated with water based sprays of the test compounds. Sprays were delivered by CO2-charged sprayer to deliver the equivalent of 2 gallons of spray per 1000 sq. ft of plot area. Plots were 15 sq. ft. each, and treatments were mixed to apply material to 75 sq. ft (5 replicates), although only 4 replicates were treated. […] Daconil Ultrex® was applied at 3.2 oz./1000 sq. ft. for 14 days. The experiment used a randomized complete block design, with 4 replicates per treatment. Disease pressure was high. Pennlinks […] is moderately to highly susceptible to both dollar spot and brown patch. For brown patch, caused by Rhozoctonia sofani. a visual estimate of the percent of the plot area affected was recorded. Turf quality was estimated on a 1 to 9 scale, with 1 being worst and 9 being perfect. A rating of 6 is considered acceptable.
(§2) Plots of creeping bentgrass, cv. Pennlinks, were treated with water-based sprays as in Example 84 at Clemson University. Treatment application dates were May 7. May 14, May 28, and June 11. Plots were rated visually, estimating the percent of the area affected by dollar spot fungus […]. Turf quality was rated on a 1 to 9 scale, with 9 being perfect turf, as in Example 84. Disease pressure was moderately high to high when the trial was initiated, with existing dollar spot present.

[2] = Turf plot trial at Clemson University (Example 85), turf quality; format: in vivo, creeping bentgrass, cv. Pennlinks; conditions: 1 to 9 scale, 50 grams active ingredient per 1000 square feet
Experimental: as §1, §2

dollar spot = assay: Antifungal treatment on turf grass plots (Example 84), dollar spot count; format: in vivo; conditions: 17.8 g/1000 sq. ft. (Daconil Ultrex 3.2 oz./1000 sq. ft.)
Experimental: (§3) Plots of creeping bentgrass, cv. “Pennlinks,” were treated with water based sprays of the test compounds. Sprays were delivered by CO2-charged sprayer to deliver the equivalent of 2 gallons of spray per 1000 sq. ft of plot area. Plots were 15 sq. ft. each, and treatments were mixed to apply material to 75 sq. ft (5 replicates), although only 4 replicates were treated. The quaternary salts of triterpenes were applied at 17.8 g/1000 sq. ft. for 14 days. Daconil Ultrex® was applied at 3.2 oz./1000 sq. ft. for 14 days. The experiment used a randomized complete block design, with 4 replicates per treatment. Disease pressure was high. Pennlinks […] is moderately to highly susceptible to both dollar spot and brown patch. For brown patch, caused by Rhozoctonia sofani. a visual estimate of the percent of the plot area affected was recorded. Turf quality was estimated on a 1 to 9 scale, with 1 being worst and 9 being perfect. A rating of 6 is considered acceptable.

[3] = test system: brown patch, caused by Rhozoctonia sofani; assay: Antifungal treatment on turf grass plots (Example 84), brown patch; format: in vivo; conditions: 17.8 g/1000 sq. ft. (Daconil Ultrex 3.2 oz./1000 sq. ft.)
Experimental: as §3

[4] = Antifungal treatment on turf grass plots (Example 84), turf quality; format: in vivo, creeping bentgrass, cv. Pennlinks; conditions: 1 to 9 scale, 9 perfect, 17.8 g/1000 sq. ft. (Daconil Ultrex 3.2 oz./1000 sq. ft.)
Experimental: as §3

[5] = Table 2 experiment, Jul. 2, 2001
[6] = Table 2 experiment, Jul. 16, 2001
[7] = Table 2 experiment, Jun. 25, 2001
[8] = Table 3 experiment, Jul. 2, 2001
[9] = Table 3 experiment, Jul. 9, 2001
[10] = Table 3 experiment, Jul. 16, 2001
[11] = Table 3 experiment, Jun. 25, 2001
[12] = Table 2 experiment, Jul. 9, 2001

Structure (SMILES) | Dollar Spot # of spots per plot (dollar spot; [5]) [spots per plot] | Dollar Spot # of spots per plot (dollar spot; [6]) [spots per plot] | Dollar Spot # of spots per plot (dollar spot; [7]) [spots per plot] | Dollar Spot # of spots per plot (dollar spot; [8]) | Dollar Spot # of spots per plot (dollar spot; [9]) [spots per plot] | Dollar Spot # of spots per plot (dollar spot; [10]) [spots per plot] | Dollar Spot # of spots per plot (dollar spot; [11]) [spots per plot] | Brown Patch % of plot infected [3, 5] [%] | Brown Patch % of plot infected [3, 12] [%] | Brown Patch % of plot infected [3, 6] [%] | Brown Patch % of plot infected [3, 7] [%] | Brown Patch % of plot infected [3, 8] [%] | Brown Patch % of plot infected [3, 9] | Brown Patch % of plot infected [3, 10] [%] | Brown Patch % of plot infected [3, 11] [%] | Turf quality [4, 5] | Turf quality [4, 12] | Turf quality [4, 6] | Turf quality [4, 7] | Turf quality [4, 8] | further results
C=C(C)[C@@H]1CC[C@]2(COC(=O)C[n+]3ccc(N(C)C)cc3)CC[C@]3(C)C(CCC4[C@@]5(C)CC[C@H](OC(=O)C[n+]6ccc(N(C)C)cc6)C(C)(C)C5CC[C@]43C)C12.[Cl-].[Cl-] (some centres unmarked) [Compound 46, Lup-20(29)-ene-3,28-bis[N-(4-dimethylaminopyridinium)acetate] dichloride] | – | – | – | – | – | – | – | – | – | – | – | – | – | – | – | – | – | – | – | – | % of area infected ([1]; Table 5 c2, Jun. 3, 2002): 23.5 a %; % of area infected ([1]; Table 5 c4, Jun. 3, 2002): 24.0 a %; % of area infected ([1]; Table 6, May 8, 2002): 30.5 a %; % of area infected ([1]; Table 6, May 13, 2002): 28.0 a %; % of area infected ([1]; Table 6, May 20, 2002): 25.0 bc %; % of area infected ([1]; Table 6, May 27, 2002): 26.8 bcd %; Turf quality ([2]; Table 5, Jun. 3, 2002): 5.40 ab; Turf quality ([2]; Table 5, Jun. 17, 2002): 4.52 ab; Turf quality ([2]; Table 5, May 27, 2002): 4.00 ab; Turf quality ([2]; Table 6, May 8, 2002): 3.25 a; Turf quality ([2]; Table 6, May 13, 2002): 3.38 a; Turf quality ([2]; Table 6, May 20, 2002): 3.50 a
C=C(C)[C@@H]1CC[C@]2(CO)CC[C@]3(C)C(CCC4[C@@]5(C)CC[C@H](OC(=O)C[N+](C)(C)CCCCCCCCCCCCCC)C(C)(C)C5CC[C@]43C)C12.[Cl-] (some centres unmarked) [Compound 56] | – | – | – | – | – | – | – | – | – | – | – | – | – | – | – | – | – | – | – | – | % of area infected ([1]; Table 5 c2, Jun. 3, 2002): 22.0 a %; % of area infected ([1]; Table 5 c4, Jun. 3, 2002): 19.3 ab %; % of area infected ([1]; Table 6, May 8, 2002): 31.0 a %; % of area infected ([1]; Table 6, May 13, 2002): 26.5 a %; % of area infected ([1]; Table 6, May 20, 2002): 32.0 bc %; % of area infected ([1]; Table 6, May 27, 2002): 21.8 cd %; Turf quality ([2]; Table 5, Jun. 3, 2002): 5.30 ab; Turf quality ([2]; Table 5, Jun. 17, 2002): 5.38 ab; Turf quality ([2]; Table 5, May 27, 2002): 4.47 ab; Turf quality ([2]; Table 6, May 8, 2002): 3.13 a; Turf quality ([2]; Table 6, May 13, 2002): 3.00 a; Turf quality ([2]; Table 6, May 20, 2002): 3.03 ab
C=C(C)[C@@H]1CC[C@]2(COC(=O)C[n+]3ccccc3)CC[C@]3(C)C(CCC4[C@@]5(C)CC[C@H](OC(=O)C[n+]6ccccc6)C(C)(C)C5CC[C@]43C)C12.[Cl-].[Cl-] (some centres unmarked) [Compound 1, Lup-20(29)-ene3,28-bis-(N-pyridiniumacetate) dichloride] | 22.3 | 2.8 | 21.0 | suppressed dollar spot | 13.0 | 1.5 | 11.5 | 35.0 | 13.8 | 3.8 | 18.8 | 24.0 | 20.5% | 8.6 | 15.8 | 4.50 | 6.00 | 5.57 | 4.50 | 4.50 | Dollar Spot # of spots per plot (dollar spot; Table 3 experiment, Jul. 2, 2001, listed as Comp. 1): 15.8 spots per plot; Turf quality [4, 9]: 5.38; Turf quality [4, 11]: 4.88
C=C(C)[C@@H]1CC[C@]2(COC(=O)C[N+](C)(C)CCN(C)C)CC[C@]3(C)C(CCC4[C@@]5(C)CC[C@H](OC(=O)C[N+](C)(C)CCN(C)C)C(C)(C)C5CC[C@]43C)C12.[Cl-].[Cl-] (some centres unmarked) [Compound 7, Lup-20(29)-ene-3,28-bis[(tetramethylethylenediamine-N-yl)acetate] dichloride] | 22.3 | 2.3 | 18.3 | 21.5 spots per plot | 14.5 | 2.0 | 14.8 | 20.5 | 20.0 | 3.8 | 24.5 | 25.5 | significantly suppress brown patch | 8.8 | 17.5 | 4.25 | 4.50 | 5.60 | 4.50 | 4.50 | Brown Patch % of plot infected ([3]; Table 3 experiment, Jul. 9, 2001, listed as Comp. 7): 10.8%; Turf quality [4, 9]: 5.88; Turf quality [4, 11]: 4.36
C=C(C)[C@@H]1CC[C@]2(COC(=O)CC[n+]3ccccc3)CC[C@]3(C)C(CCC4[C@@]5(C)CC[C@H](OC(=O)CC[n+]6ccccc6)C(C)(C)C5CC[C@]43C)C12.[Cl-].[Cl-] (some centres unmarked) [Compound 14, Lup-20 (29)-ene-3,28-bis (N-pyridinium-3-propionate) dichloride] | 21.8 | 3.5 | 22.3 | 20.8 spots per plot | 14.5 | 2.8 | 16.3 | 36.8 | 25.0 | 5.0 | 25.8 | 31.3 | 16.5% | 7.5 | 16.3 | 4.25 | 4.63 | 5.60 | 4.38 | 4.75 | Turf quality [4, 9]: 5.00; Turf quality [4, 11]: 4.88
